Molecules are shown by their SMILES.

Assay [1] deals with T1, Enoyl-[acyl-carrier-protein] reductase [NADH] (Mycobacterium tuberculosis, UniProt P9WGR1, V203A).
Assay [2] addresses T1, Enoyl-[acyl-carrier-protein] reductase [NADH]. This is another data set of the same source.
For assay [3], the target named is Enoyl-[acyl-carrier-protein] reductase [NADH] (Mycobacterium tuberculosis, UniProt P9WGR1, I215A). The assay can be described thus: biochemical.
Assay [4] has as its target Enoyl-[acyl-carrier-protein] reductase [NADH] (Mycobacterium tuberculosis, UniProt P9WGR1, I21V). The assay can be described thus: Inhibition of Mycobacterium tuberculosis InhA I21V mutant using trans-2-decenoyl-CoA as substrate by spectrophotometric analysis.
Assay [5] addresses T2, Enoyl-[acyl-carrier-protein] reductase [NADH] (Mycobacterium tuberculosis, UniProt P9WGR1, S94A). The assay can be described thus: Inhibition of Mycobacterium tuberculosis InhA S94A mutant using trans-2-decenoyl-CoA as substrate by spectrophotometric analysis.
In assay [6] the target is Enoyl-[acyl-carrier-protein] reductase [NADH] (Mycobacterium tuberculosis, UniProt P9WGR1, T2A). The assay can be described thus: Inhibition of Mycobacterium tuberculosis InhA T2A mutant.
The subject of assay [7] is Mycobacterium tuberculosis. The assay can be described thus: Antimycobacterial activity against Mycobacterium tuberculosis harboring InhA T2A mutant. In kind it is functional.
The target of assay [8] is Enoyl-[acyl-carrier-protein] reductase [NADH] (Mycobacterium tuberculosis, UniProt P9WGR1, D2A). The assay can be described thus: Inhibition of Mycobacterium tuberculosis InhA D2A mutant.
For assay [9], the target named is T2, Enoyl-[acyl-carrier-protein] reductase [NADH]. The assay can be described thus: Inhibition of Mycobacterium tuberculosis InhA S94A mutant.

Turning to `CCCCCCc1ccc(Oc2ccccc2C)c(O)c1`, the values for the Ki in [1], in [2] and in assay [3] were 427 nM, 913 nM and 114 nM, respectively.
As to `NC(=O)c1c[n+]([C@@H]2O[C@H](COP(=O)(O)OP(=O)(O)OC[C@H]3O[C@@H](n4cnc5c(N)ncnc54)[C@H](O)[C@@H]3O)[C@@H](O)[C@H]2O)ccc1C(=O)c1ccncc1`, the Ki in [4] turned out to be 2.1 nM; in assay [5], 5.3 nM; in [6] it was 5 nM; in [8], 172 nM; in [9] it was 172 nM. Besides, the concentration for half-maximal inhibition (IC50) worked out at 19 nM in [6], 323 nM in assay [8] and 323 nM in assay [9]. In [7], this compound registered an MIC50 of 1.8 µM.

For the origin of these results see ChEMBL document CHEMBL4145513, “An overview on crystal structures of InhA protein: Apo-form, in complex with its natural ligands and inhibitors” (Eur J Med Chem, 2018).
